Molecules are shown by their SMILES. Read-outs that look alike come from different tables or passages of the source.

Our source for the IC50 values is publication PMC10417023, “Imidazole-4-N-acetamide Derivatives as a Novel Scaffold for Selective Targeting of Cyclin Dependent Kinases” (Cancers, 2023).

What all share (experiment): […]-ATP radiometric filter-binding kinase assay
What all share (format): biochemical

For one assay, the target named is T1, CDK1/cyclin E (Homo sapiens, UniProt P06493).
T1 construct: purified CDK/cyclin complex; with G1/S-specific cyclin-E1

The next assay deals with T2, CDK9/cyclin K (Homo sapiens, UniProt P50750).
T2 construct: purified CDK9/cyclin K complex; with Cyclin-K

For another assay, the target named is T3, CDK5/p35 (Homo sapiens, UniProt Q00535).
T3 construct: purified CDK5/p35 complex

For a further assay, the target named is T4, CDK2/cyclin E (Homo sapiens, UniProt P24941).
T4 construct: purified CDK/cyclin complex; with G1/S-specific cyclin-E1

T3 sequence (Q00535 whole entry): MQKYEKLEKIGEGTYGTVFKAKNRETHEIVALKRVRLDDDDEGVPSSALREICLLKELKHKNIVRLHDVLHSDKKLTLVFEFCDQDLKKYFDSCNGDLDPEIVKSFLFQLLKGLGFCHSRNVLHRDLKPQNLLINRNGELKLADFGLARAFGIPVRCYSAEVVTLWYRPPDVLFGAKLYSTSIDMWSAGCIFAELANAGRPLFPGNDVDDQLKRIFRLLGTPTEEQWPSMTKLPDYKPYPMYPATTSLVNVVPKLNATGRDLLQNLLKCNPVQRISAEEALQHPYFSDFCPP
T3 sequence (Q15078 2-307 partner): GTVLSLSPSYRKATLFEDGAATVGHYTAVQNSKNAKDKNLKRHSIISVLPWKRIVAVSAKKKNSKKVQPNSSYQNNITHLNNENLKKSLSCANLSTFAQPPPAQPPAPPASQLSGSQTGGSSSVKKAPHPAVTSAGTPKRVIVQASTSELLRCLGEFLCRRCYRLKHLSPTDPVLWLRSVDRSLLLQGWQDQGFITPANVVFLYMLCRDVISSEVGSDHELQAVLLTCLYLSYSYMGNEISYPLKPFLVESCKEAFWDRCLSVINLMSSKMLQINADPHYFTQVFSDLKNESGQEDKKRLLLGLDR
T1 sequence (P06493 whole entry): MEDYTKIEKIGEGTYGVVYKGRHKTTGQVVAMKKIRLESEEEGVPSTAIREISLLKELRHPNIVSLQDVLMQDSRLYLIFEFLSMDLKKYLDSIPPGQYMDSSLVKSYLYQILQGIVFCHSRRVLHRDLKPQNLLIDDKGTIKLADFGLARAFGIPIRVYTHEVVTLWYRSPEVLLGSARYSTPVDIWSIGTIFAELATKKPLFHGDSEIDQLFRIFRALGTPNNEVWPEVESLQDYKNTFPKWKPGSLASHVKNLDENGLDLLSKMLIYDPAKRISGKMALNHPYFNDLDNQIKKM
T1 sequence (P24864 whole entry partner): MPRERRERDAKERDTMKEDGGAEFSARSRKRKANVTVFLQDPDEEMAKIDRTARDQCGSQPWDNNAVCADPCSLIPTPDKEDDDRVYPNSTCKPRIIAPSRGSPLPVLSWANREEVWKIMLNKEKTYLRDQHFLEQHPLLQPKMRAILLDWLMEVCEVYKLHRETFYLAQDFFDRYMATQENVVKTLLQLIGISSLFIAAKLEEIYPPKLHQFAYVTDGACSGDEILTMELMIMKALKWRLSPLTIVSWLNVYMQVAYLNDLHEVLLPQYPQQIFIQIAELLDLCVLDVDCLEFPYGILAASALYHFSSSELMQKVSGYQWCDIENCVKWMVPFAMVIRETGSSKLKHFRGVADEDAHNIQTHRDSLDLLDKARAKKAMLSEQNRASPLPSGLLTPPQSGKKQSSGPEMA
T2 sequence (P50750 whole entry): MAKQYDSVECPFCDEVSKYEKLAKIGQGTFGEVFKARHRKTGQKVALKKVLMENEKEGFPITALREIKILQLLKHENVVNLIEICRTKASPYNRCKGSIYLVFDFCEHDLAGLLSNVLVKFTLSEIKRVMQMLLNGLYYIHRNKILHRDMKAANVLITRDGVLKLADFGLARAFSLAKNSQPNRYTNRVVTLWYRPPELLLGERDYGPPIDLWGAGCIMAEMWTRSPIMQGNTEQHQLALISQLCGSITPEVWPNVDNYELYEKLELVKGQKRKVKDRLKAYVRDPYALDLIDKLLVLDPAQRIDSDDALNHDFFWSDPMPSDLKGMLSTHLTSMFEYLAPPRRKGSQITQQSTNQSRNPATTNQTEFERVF
T2 sequence (O75909 whole entry partner): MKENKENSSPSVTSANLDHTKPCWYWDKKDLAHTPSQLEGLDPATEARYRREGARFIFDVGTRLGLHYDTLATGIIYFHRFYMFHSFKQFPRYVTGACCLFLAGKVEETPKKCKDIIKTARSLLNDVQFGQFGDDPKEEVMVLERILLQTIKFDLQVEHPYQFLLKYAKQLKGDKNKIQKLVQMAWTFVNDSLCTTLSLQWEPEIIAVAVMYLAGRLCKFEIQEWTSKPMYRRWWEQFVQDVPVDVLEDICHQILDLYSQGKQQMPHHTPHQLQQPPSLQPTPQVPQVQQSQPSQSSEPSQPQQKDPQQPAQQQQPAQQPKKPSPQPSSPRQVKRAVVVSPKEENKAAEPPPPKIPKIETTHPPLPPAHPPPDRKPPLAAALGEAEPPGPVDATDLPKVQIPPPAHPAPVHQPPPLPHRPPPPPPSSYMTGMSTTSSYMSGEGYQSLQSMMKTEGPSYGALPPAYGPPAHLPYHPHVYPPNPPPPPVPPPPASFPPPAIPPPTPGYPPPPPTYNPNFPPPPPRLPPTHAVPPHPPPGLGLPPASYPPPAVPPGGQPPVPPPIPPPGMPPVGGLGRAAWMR

Turning to `CC(C)n1cnc(NC(=O)Cc2ccccc2)c1` [compound 1, Compound 1], the IC50 came to 14000 nM at CDK1/cyclin E (read-out: Compound 1), 3000 nM on CDK9/cyclin K (read-out: Compound 1), 40000 nM at CDK5/p35 (read-out: Compound 1) and 710 nM on CDK2/cyclin E (read-out: Compound 1).

For `CC(C)n1cnc(NC(=O)Cc2ccccn2)c1` [compound 4, Compound 4], the IC50 worked out at 6200 nM on CDK1/cyclin E (read-out: Compound 4), 880 nM at CDK9/cyclin K (read-out: Compound 4), 20000 nM at CDK5/p35 (read-out: Compound 4) and 270 nM at CDK2/cyclin E (read-out: Compound 4).

Regarding `CC(C(=O)Nc1cn(C(C)C)cn1)c1ccccc1` (racemic) [compound 3, Compound 3], the IC50 on CDK1/cyclin E (read-out: Compound 3) worked out at 30000 nM; on CDK9/cyclin K (read-out: Compound 3) it was 4300 nM; on CDK5/p35 (read-out: Compound 3), 79000 nM; on CDK2/cyclin E (read-out: Compound 3) it was 1200 nM.

`CC(C)n1cnc(NC(=O)Cc2ccccc2O)c1` [compound 2, Compound 2]: the IC50 on CDK1/cyclin E (read-out: Compound 2) was 720 nM; on CDK9/cyclin K (read-out: Compound 2) it was 1000 nM; on CDK5/p35 (read-out: Compound 2), 880 nM; at CDK2/cyclin E (read-out: Compound 2) it was 160 nM.
